Like-named read-outs stand apart in the source and are kept apart here.

Holding throughout (format): biochemical
In experiment [1] the target is PIM1 (Homo sapiens (Human), UniProt P11309). Kind of experiment: biochemical. The protocol:
(§1) A fluorescent-labeled Pim-specific peptide substrate, was custom synthesized by American Peptide Company (Sunnyvale, Calif.). Reaction Buffer contained 10 mM HEPES, pH 7.2, 10 mM MgCl2, 0.01% Tween 20, 2 mM DTT. Termination Buffer contained 190 mM HEPES, pH 7.2, 0.015% Brij-35, 0.2% Coating Reagent 3 (Caliper Life Sciences, Hopkinton, Mass.), 20 mM EDTA. Separation Buffer contained 100 mM HEPES, pH 7.2, 0.015% Brij-35, 0.1% Coating Reagent 3, 1:200 Coating Reagent 8 (Caliper Life Sciences, Hopkinton, Mass.), 10 mM EDTA and 5% DMSO.
(§2) PIM reactions were carried out in a final volume of 10 μL per well in a 384-well plate. […] After 90 minutes of incubation at room temperature, the phosphorylation reaction was stopped by the addition of 10 μL Termination Buffer. The product and substrate in each independent reaction were separated on a 12-sipper microfluidic chip (Caliper Life Sciences, Hopkinton, Mass.) run on a Caliper LC3000® (Caliper Life Sciences, Hopkinton, Mass.). The separation of product and substrate was optimized by choosing voltages and pressure using Caliper's Optimizer software (Hopkinton, Mass.). […] Substrate conversion was calculated from the electropherogram using HTS Well Analyzer software (Caliper Life Sciences, Hopkinton, Mass.). Ki values for the test compound were calculated.

For experiment [2], the target named is PIM2 (Homo sapiens (Human), UniProt Q9P1W9). Description: Pim kinase binding activity, Caliper LC3000 microfluidic peptide phosphorylation assay, PIM2. Conditions: 10 μM ATP, 90 min, room temperature; read-out: PIM2 LC3K (KI). The protocol:
as §1, §2

Experiment [3] deals with PIM3 (Homo sapiens (Human), UniProt Q86V86). Kind of experiment: Pim kinase binding activity, Caliper LC3000 microfluidic peptide phosphorylation assay, PIM3. Conditions: 10 μM ATP, 90 min, room temperature; read-out: PIM3 LC3K (KI). The protocol:
as §1, §2

Where [4] appears, read: 10 μM ATP, 90 min, room temperature, read-out: PIM1 LC3K (KI).

PIM2, sequence (Q9P1W9 whole entry): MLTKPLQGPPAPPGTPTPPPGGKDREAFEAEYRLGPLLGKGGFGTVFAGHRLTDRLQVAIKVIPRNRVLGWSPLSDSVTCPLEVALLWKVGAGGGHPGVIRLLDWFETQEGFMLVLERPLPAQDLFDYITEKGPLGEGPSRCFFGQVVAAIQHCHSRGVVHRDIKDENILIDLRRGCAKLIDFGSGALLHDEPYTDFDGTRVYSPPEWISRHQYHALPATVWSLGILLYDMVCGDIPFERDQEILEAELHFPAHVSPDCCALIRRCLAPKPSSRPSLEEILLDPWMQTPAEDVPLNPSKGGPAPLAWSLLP
PIM1, sequence (P11309 whole entry): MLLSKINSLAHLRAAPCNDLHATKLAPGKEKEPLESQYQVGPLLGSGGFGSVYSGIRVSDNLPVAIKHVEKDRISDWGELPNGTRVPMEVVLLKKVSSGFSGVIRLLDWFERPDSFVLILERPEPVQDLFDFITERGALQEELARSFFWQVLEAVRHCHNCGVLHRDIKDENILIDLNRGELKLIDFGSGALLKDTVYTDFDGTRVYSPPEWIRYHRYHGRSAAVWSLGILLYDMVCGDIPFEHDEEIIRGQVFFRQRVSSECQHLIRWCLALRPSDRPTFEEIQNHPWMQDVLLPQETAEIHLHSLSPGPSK

As usually defined, the Ki is a measure of affinity in units of concentration, obtained from inhibition or displacement. As to `Cc1cncc(-c2cc3c(cn2)cnn3-c2ccc(=O)n([C@@H]3CCCNC3)n2)n1` [Compound 290, (R)-6-(6-(6-methylpyrazin-2-yl)-1H-pyrazolo[4,3-c]pyridin-1-yl)-2-(piperidin-3-yl)pyridazin-3(2H)-one], the inhibition constant Ki is 16.3 nM in experiment [1] and 43.2 nM in experiment [2].
Take `CCn1cc(-c2cc3c(cn2)cnn3-c2cccc(N3CC[C@@H](O)C3)n2)cn1` [Compound 128, (R)-1-(6-(6-(1-ethyl-1H-pyrazol-4-yl)-1H-pyrazolo[4,3-c]pyridin-1-yl)pyridin-2-yl)pyrrolidin-3-ol]: the inhibitory constant (Ki) in experiment [1] (setting [4]) is 7.22 nM; in experiment [3], 4.39 nM.
For `Cn1cc(-c2cc3c(cn2)cnn3-c2cccc(N3CC4(CNC4)C3)n2)cn1` [Compound 268, 1-(6-(2,6-Diazaspiro[3.3]heptan-2-yl)pyridin-2-yl)-6-(1-methyl-1H-pyrazol-4-yl)-1H-pyrazolo[4,3-c]pyridine], the Ki is 11.5 nM in experiment [1] (setting [4]) and 149 nM in experiment [2].
Take `Cc1cncc(-c2cc3c(cn2)cnn3-c2cccc(N3CCCC(N)C3C)n2)n1` (stereo not drawn) [Compound 195, 2-methyl-1-[6-[6-(6-methylpyrazin-2-yl)pyrazolo[4,3-c]pyridin-1-yl]-2-pyridyl]piperidin-3-amine]: the Ki was 1.03 nM in experiment [2] and 0.057 nM in experiment [3].
For `CC(C)c1cncc(-c2cc3c(cn2)cnn3-c2cccc(N3CCC[C@@H](N)C3)n2)c1` [Compound 107, (R)-1-(6-(6-(5-isopropylpyridin-3-yl)-1H-pyrazolo[4,3-c]pyridin-1-yl)pyridin-2-yl)piperidin-3-amine], in that order: 9.58 nM and 0.203 nM.
Take `Cc1cncc(-c2cc3c(cn2)cnn3-c2ccc(C(F)(F)F)c(N3CCC[C@H](N)C3)n2)n1` [Compound 220, (S)-1-(6-(6-(6-methylpyrazin-2-yl)-1H-pyrazolo[4,3-c]pyridin-1-yl)-3-(trifluoromethyl)pyridin-2-yl)piperidin-3-amine]: the results for the Ki in experiment [2] and in experiment [3] were 0.115 nM and 0.009 nM, respectively.
Consider `Cn1cc(-c2cc3c(cn2)cnn3-c2cccc(N3CCNCC3)n2)cn1` [Compound 102, 6-(1-methyl-1H-pyrazol-4-yl)-1-(6-(piperazin-1-yl)pyridin-2-yl)-1H-pyrazolo[4,3-c]pyridine], for which the Ki in experiment [1] (setting [4]) was 0.623 nM; in experiment [2] it was 12.1 nM.
With `CCc1cncc(-c2cc3c(cn2)cnn3-c2cccc(N3CCNC[C@H](O)C3)n2)c1` (single isomer, unassigned) [Compound 121], the inhibitory constant (Ki) came out at 10.5 nM in experiment [2] and 0.301 nM in experiment [3].
For `FC(F)Cn1cc(-c2cc3c(cn2)cnn3-c2cccc(N3CCCNCC3)n2)cn1` [Compound 162, 1-(6-(1,4-Diazepan-1-yl)pyridin-2-yl)-6-(1-(2,2-difluoroethyl)-1H-pyrazol-4-yl)-1H-pyrazolo[4,3-c]pyridine], in that order: 2.26 nM and 0.814 nM.
For the compound `Cc1cncc(-c2cc3c(cn2)cnn3-c2cccc(C3CNCCC3(F)F)n2)n1` (stereo not drawn) [Compound 259, 1-[6-(4,4-difluoro-3-piperidyl)-2-pyridyl]-6-(6-methylpyrazin-2-yl)pyrazolo[4,3-c]pyridine], the results for the Ki in experiment [1] (setting [4]) and in experiment [2] were 0.053 nM and 0.242 nM, respectively.
`Cc1cncc(-c2cc3c(cn2)cnn3-c2ccc(F)c(N3CCC[C@H](N)C3)n2)n1` [Compound 215, (S)-1-(3-fluoro-6-(6-(6-methylpyrazin-2-yl)-1H-pyrazolo[4,3-c]pyridin-1-yl)pyridin-2-yl)piperidin-3-amine]: the Ki came out at 0.314 nM in experiment [2] and 0.011 nM in experiment [3].
For `CCc1cncc(-c2cc3c(cn2)cnn3-c2ccc(C3CC3)c(N3CCC[C@H](N)C3)n2)c1` [Compound 139, (S)-1-(3-cyclopropyl-6-(6-(5-ethylpyridin-3-yl)-1H-pyrazolo[4,3-c]pyridin-1-yl)pyridin-2-yl)piperidin-3-amine], in that order: 0.187 nM and 0.035 nM.

(Values after patent US9434725B2, “5-azaindazole compounds and methods of use” (priority 2012, dated 2016).)
